Data: patent US20260327240A1, “1,4-CINEOLE DERIVATIVE AND INTERMEDIATE THEREOF, HERBICIDE CONTAINING SAID DERIVATIVE AS ACTIVE INGREDIENT, METHOD FOR USING HERBICIDE, AND METHOD FOR PREPARING AGROCHEMICAL COMPOSITION” (HOKKO CHEMICAL INDUSTRY CO., LTD., priority 2023, published 2026)

Key:
Assay type in all cases: in vivo
[1] = test system: Scirpus juncoides; test: Test Example 2: herbicidal effect test by application during growth period of paddy rice; settings: 7 days after sowing, 120 g per 10 ares, 14 days after application
Description: (§1) Herbicidal Effect Test by Application During Growth Period of Paddy Rice
(§2) Wagner pots with an area of 1/10,000 […] were filled with paddy soil, followed by addition of water and incorporation of chemical fertilizer (N:P:K=16:16:16), after which puddling was performed. After that, seeds of Echinochloa crus-galli var. formosensis, broad-leaved weeds (Lindemia pyxidaria, and Monochoria vaginalis), and Scirpus juncoides were sown at a depth of 0 cm to 1 cm, 30 seeds each. Immediately after sowing, the pots were flooded and a water depth of approximately 3 cm was maintained. Subsequent management was conducted in a glass greenhouse. Seven days after sowing, an emulsifiable concentrate prepared according to Formulation Example 5 using the compound shown below was diluted with water, and a specified amount of the diluted solution was applied by dropper. The amount of the active ingredient to be applied was equivalent to 120 g per 10 ares. The test was conducted in duplicate for each chemical concentration group, and the herbicidal effect was evaluated 14 days after chemical application using the same criteria as in Test Example 1.

[2] = test system: Monochoria vaginalis; test: as above; settings: 7 days after sowing, 120 g per 10 ares, 14 days after application
Description: as §1, §2

[3] = test system: Echinochloa crus-galli var. formosensis; test: as above; settings: 7 days after sowing, 120 g per 10 ares, 14 days after application
Description: as §1, §2

[4] = test system: Echinochloa crus-galli var. formosensis; test: Test Example 6: herbicidal effect test by application during growth period of paddy rice; settings: 7 days after sowing, 7.5 g per 10 ares, 14 days after application
Description: as §1
as §2, with “7.5” for “120”

[5] = test system: Echinochloa crus-galli; test: Test Example 4: herbicidal effect test by stem and leaf treatment in upland field; settings: 7 days after sowing, 120 g per 10 ares, 14 days after application
Description: (§3) Herbicidal Effect Test by Stem and Leaf Treatment in Upland Field
(§4) Pots with an area of 36 cm^2 were filled with upland soil (alluvial loam), twenty seeds each of weeds of Digitaria ciliaris, Echinochloa crus-galli, Chenopodium album, and Amaranthus viridis were uniformly mixed with the top 1 cm layer of soil and the surface was lightly pressed down. Seven days after sowing, an emulsifiable concentrate prepared according to Formulation Example 5 using the compound shown below was diluted with water, and the diluted solution was sprayed onto the soil surface at a rate of 100 liters per 10 ares. The amount of the active ingredient to be applied was equivalent to 120 g per 10 ares. Fourteen days after chemical application, the herbicidal effect was evaluated according to the same criteria as in Test Example 1.

[6] = test system: Digitaria ciliaris; test: as above; settings: 7 days after sowing, 120 g per 10 ares, 14 days after application
Description: as §3, §4

[7] = test system: Echinochloa crus-galli; test: Test Example 3: herbicidal effect test by soil application in upland field; settings: 1 day after sowing, 120 g per 10 ares, 14 days after application
Description: (§5) Herbicidal Effect Test by Soil Application in Upland Field
as §4, with “One day” for “Seven days”

[8] = test system: Digitaria ciliaris; test: as above; settings: 1 day after sowing, 120 g per 10 ares, 14 days after application
Description: as §5
as §4, with “One day” for “Seven days”

[9] = test system: Scirpus juncoides; test: Test Example 1: herbicidal effect test by soil application in paddy rice; settings: 120 g per 10 ares, 14 days after application
Description: (§6) Herbicidal Effect Test by Soil Application in Paddy Rice
as §2, with “(Lindernia pyxidaria” for “(Lindemia pyxidaria,”, “Immediately thereafter,” for “Seven days after sowing,”, “ares.” for “ares. The test was conducted in duplicate for each chemical concentration group, and the herbicidal effect was evaluated 14 days after chemical application using the same criteria as in Test Example 1.”
(§7) The present test was conducted in duplicate for each chemical concentration group, and the weed inhibition rate (%) was determined 14 days after chemical application using the following formula (Math. 1).

[10] = test system: Monochoria vaginalis; test: as above; settings: 120 g per 10 ares, 14 days after application
Description: as §6
as §2, with “(Lindernia pyxidaria” for “(Lindemia pyxidaria,”, “Immediately thereafter,” for “Seven days after sowing,”, “ares.” for “ares. The test was conducted in duplicate for each chemical concentration group, and the herbicidal effect was evaluated 14 days after chemical application using the same criteria as in Test Example 1.”
as §7

[11] = test system: Echinochloa crus-galli var. formosensis; test: as above; settings: 120 g per 10 ares, 14 days after application
Description: as §6
as §2, with “(Lindernia pyxidaria” for “(Lindemia pyxidaria,”, “Immediately thereafter,” for “Seven days after sowing,”, “ares.” for “ares. The test was conducted in duplicate for each chemical concentration group, and the herbicidal effect was evaluated 14 days after chemical application using the same criteria as in Test Example 1.”
as §7

[12] = test system: Echinochloa crus-galli var. formosensis; test: Test Example 5: herbicidal effect test by soil application in paddy rice; settings: 7.5 g per 10 ares, 14 days after application
Description: as §6
as §2, with “Immediately thereafter,” for “Seven days after sowing,”, “7.5” for “120”, “ares.” for “ares. The test was conducted in duplicate for each chemical concentration group, and the herbicidal effect was evaluated 14 days after chemical application using the same criteria as in Test Example 1.”
The present test was conducted in duplicate for each chemical concentration group, and the herbicidal effect was evaluated 14 days after chemical application using the same criteria as in Test Example 1.

[13] = test system: Echinochloa crus-galli; test: Test Example 7: herbicidal effect test by soil application in upland field; settings: 1 day after sowing, 7.5 g per 10 ares, 14 days after application
Description: as §5
as §4, with “One day” for “Seven days”, “7.5” for “120”

[14] = test system: Digitaria ciliaris; test: as above; settings: 1 day after sowing, 7.5 g per 10 ares, 14 days after application
Description: as §5
as §4, with “One day” for “Seven days”, “7.5” for “120”

[15] = test system: Echinochloa crus-galli; test: Test Example 8: herbicidal effect test by stem and leaf treatment in upland field; settings: 7 days after sowing, 7.5 g per 10 ares, 14 days after application
Description: as §3
as §4, with “7.5” for “120”

[16] = test system: Digitaria ciliaris; test: as above; settings: 7 days after sowing, 7.5 g per 10 ares, 14 days after application; for inhibition at 75 g/ha: Digitaria ciliaris, read-out: weed inhibition rate
Description: as §3
as §4, with “7.5” for “120”

[17] = Echinochloa crus-galli, read-out: weed inhibition rate
[18] = Digitaria ciliaris, read-out: weed inhibition rate

CC(C)[C@]12C[C@@H](OCc3ccccc3F)[C@](C)(C[C@@H]1Cl)O2 [1-12]
≥ 80%: weed inhibition rate [1] | weed inhibition rate [2] | weed inhibition rate [3] | weed inhibition rate [4] | weed inhibition rate [5] | weed inhibition rate [6] | weed inhibition rate [7] | weed inhibition rate [8] | weed inhibition rate [9] | weed inhibition rate [10] | weed inhibition rate [11] | weed inhibition rate [12] | weed inhibition rate [13] | weed inhibition rate [14] | weed inhibition rate [15] | weed inhibition rate [16]

CC(C)[C@]12C[C@@H](OCc3ccccc3C(F)(F)F)[C@](C)(C[C@@H]1Br)O2 [1-700, (1S,2R,4R,5S)-5-bromo-1-methyl-4-isopropyl-2-[[2-(trifluoromethyl)phenyl]methoxy]-7-oxabicyclo[2.2.1]heptane]
≥ 80%: inhibition at 75 g/ha [16]

CC(C)[C@]12C[C@@H](OCc3ccccc3F)[C@](C)(C=C1OS(=O)(=O)C(F)(F)F)O2 [3-680]
≥ 80%: weed inhibition rate [1] | weed inhibition rate [3] | weed inhibition rate [4] | weed inhibition rate [5] | weed inhibition rate [6] | weed inhibition rate [7] | weed inhibition rate [8] | weed inhibition rate [9] | weed inhibition rate [11] | weed inhibition rate [12] | weed inhibition rate [13] | weed inhibition rate [14] | weed inhibition rate [15] | weed inhibition rate [16]

CC(C)[C@]12C[C@@H](OCc3ccccn3)[C@](C)(C[C@@H]1I)O2 [1-785, 2-[[(1S,2R,4R,5S)-5-iodo-4-isopropyl-1-methyl-7-oxabicyclo[2.2.1]heptan-2-yl]oxymethyl]pyridine]
≥ 80%: inhibition at 1200 g/ha ([1]; Schoenoplectiella juncoides, read-out: weed inhibition rate) | inhibition at 1200 g/ha [3, 17] | inhibition at 75 g/ha [4, 17] | inhibition at 1200 g/ha [5, 17] | inhibition at 1200 g/ha [6, 18] | inhibition at 75 g/ha ([12]; Echinochloa crus-galli, 336 h, read-out: weed inhibition rate) | inhibition at 75 g/ha [13, 17] | inhibition at 75 g/ha [14, 18] | inhibition at 75 g/ha [15, 17] | inhibition at 75 g/ha [16]

CC(=O)O[C@@H]1C[C@]2(C)O[C@@]1(C(C)C)C[C@H]2OCc1ccccc1F [1-932, [(1R,2R,4S,5R)-5-[(2-fluorophenyl)methoxy]-4-methyl-1-isopropyl-7-oxabicyclo[2.2.1]heptan-2-yl]acetate]
≥ 80%: weed inhibition rate [3] | weed inhibition rate [4] | weed inhibition rate [11] | weed inhibition rate [12]
